Seven molecules from patent US4176009A, “Method of measuring collagenase activity” (Ajinomoto Co., Inc., priority 1976, dated 1979) can be followed below.

Non-standard residues stand in square brackets, D forms with d. Residues, ends and D or L forms follow the SMILES beside them. *: point of attachment. Dnp = O=[N+]([O-])c1ccc(*)c([N+](=O)[O-])c1

Test [1] relates to purified collagenase. Put plainly: Rate of hydrolysis of DNP-peptide derivatives by purified collagenase (Example 15). Type of test: biochemical, tadpole. To be noted: 5×10^-4 M peptide, purified collagenase 6.2 U/ml, 37° C., pH 7.5; average of three experiments; extraction with ethyl acetate (* compounds: ethyl acetate-n-butanol 1:0.15). How it is done:
(§1) Purified collagenase used in Examples was prepared from cultured media of tadpole skin explants as described in Biochem. Biophs. Acta, 263 564(1972), and non-specific peptidases were prepared by subjecting 5 ml of fresh adult human serum to chromatography on a calibrated Sephadex G-200 superfine gel column equilibrated with 0.05 M Tris-HCl buffer, pH 7.5, containing 0.15 M NaCl and 5 mM CaCl2, and gathering the effluent fractions corresponding to molecular weights of 100,000-180,000.
(§2) Various DNP-peptide derivatives were dissolved in 0.05 M Tris-HCl buffer, pH 7.5, containing 0.15 M NaCl, 5 mM CaCl2 and 0.02% bovine serum albumin to make a concentration of 5×10^-4 M. 0.1 ml Each of the peptide derivative solutions was mixed with an equal volume of purified collagenase (6.2 U/ml) or non-specific peptidases and incubated for various periods at 37° C. After stopping the enzyme reaction by adding 0.5 ml of 1 M HCl, the DNP-peptide fragments released were extracted by vigorous shaking with 1 ml of ethylacetate or ethyl acetate-n-butanol (1:0.15, V/V), and worked up as in Example 12.

A further test relates to non-specific peptidases. Briefly: Rate of hydrolysis of DNP-peptide derivatives by non-specific peptidases (Example 15). Type of test: biochemical, human. Particulars: 5×10^-4 M peptide, 37° C., pH 7.5; average of three experiments; extraction with ethyl acetate (* compounds: ethyl acetate-n-butanol 1:0.15). How it is done:
as §1, §2

Test [2] relates to purified collagenase. Put plainly: Time course of hydrolysis of substrate solutions by purified collagenase (Example 12). The test is classed as biochemical, tadpole. Particulars: for 00365 (absorbance of the organic layer at 365 nm): pH 7.5. On the procedure:
as §1
DNP-Pro-Gln-Gly-Ile-Ala-Gly-Gln-D-Arg-OH.CH3 COOH.H2 O (4.96 mg) was neutralized with 0.1N sodium hydroxide, and dissolved in 0.05M tris-HCl buffer, pH 7.5, containing 0.15 M NaCl and 5 m MCaCl2 to make 10 ml of the substrate solution (a) having a concentration of 5×10^-4 M. The substrate solution (b) was also prepared similarly by using DNP-Gln-Gly-Ile-Ala-Gly-Gln-D-Arg-OH.CH3 COOH.H2 O (4.48 mg).
0.9 ml Each of the substrate solutions was diluted with 0.88 ml of 0.05M tris-HCl buffer, pH 7.5, containing 0.15 M NaCl, and 5 m MCaCl2. The resulting solution was mixed with 0.02 ml of purified collagenase, and incubated. 0.2 ml Aliquots of the reaction mixture were taken out at 0, 10, 20, 40, 60 and 120 minutes, and mixed with 0.5 ml of 1M hydrochloric acid for stopping the enzyme reaction.
(§3) The DNP-peptide fragments released were extracted by vigorous shaking with 1 ml of ethyl acetate-n-butanol (1:0.15, V/V) followed by centrifugation at 3,000-5,000 rpm and room temperature for 10 minutes to separate two layers completely. The degree of hydrolysis was determined by measuring the absorbance of the organic layer at 365 nm.

Test [3] deals with collagenase in synovial fluids. Briefly: Hydrolysis of substrate solutions by synovial fluids from patients; collagenase activity (Example 14). Particulars: for OD365/0.1 ml ohr: 0 hr; for OD365/0.1 ml 2hr: 2 hr at 37° C.; for OD365/0.1 ml increment: 2 hr minus 0 hr. Type of test: biochemical, human. How it is done:
as §3
0.2 ml Each of the substrate (solutions(a) and (b) prepared in Example 12 was mixed with 0.1 ml of synovial fluids from patients with osteoarthritis and rheumatoid arthritis, and incubated for 2 hours at 37° C. After stopping the enzyme reaction by adding 0.5 ml of 1 M hydrochloric acid, the DNP-peptide fragments released were extracted by vigorous shaking with 2 ml of ethyl acetate-n-butanol (1:0.15, V/V), and worked up as in Example 12 to obtain the collagenase activities.

Where [4] appears, read: synovial fluid of case five, RA.
[5] abbreviates: synovial fluid of case four, OA.
Where [6] appears, read: synovial fluid of case three, RA.

For `CC(C)C[C@H](NC(=O)CNC(=O)[C@H](CCC(N)=O)NC(=O)[C@@H]1CCCN1c1ccc([N+](=O)[O-])cc1[N+](=O)[O-])C(=O)N[C@@H](C)C(=O)NCC(=O)N[C@@H](CCC(N)=O)C(=O)N[C@H](CCCNC(=N)N)C(=O)O` [Example 4, DNP-Pro-Gln-Gly-Leu-Ala-Gly-Gln-D-Arg-OH] (Dnp-PQGLAGQ[dR]-OH), in the test on purified collagenase [1], the “Rate of hydrolysis by Collagenase” value was 0.243 OD365/hr. Moreover, in the test on non-specific peptidases, the “Rate of hydrolysis by non-specific peptidases” value is 0.031 OD365/hr.

`CC[C@H](C)[C@H](NC(=O)CNC(=O)[C@H](C)NC(=O)[C@@H]1CCCN1c1ccc([N+](=O)[O-])cc1[N+](=O)[O-])C(=O)N[C@@H](C)C(=O)NCC(=O)N[C@@H](CCC(N)=O)C(=O)N[C@H](CCCNC(=N)N)C(=O)O` [Example 5, DNP-Pro-Ala-Gly-Ile-Ala-Gly-Gln-D-Arg-OH] (Dnp-PAGIAGQ[dR]-OH): the “Rate of hydrolysis by Collagenase” value with purified collagenase [1] came out at 0.070 OD365/hr. In the test with non-specific peptidases, the “Rate of hydrolysis by non-specific peptidases” value worked out at 0.010 OD365/hr.

As for `CC(C)C[C@H](NC(=O)CNC(=O)[C@H](C)NC(=O)[C@@H]1CCCN1c1ccc([N+](=O)[O-])cc1[N+](=O)[O-])C(=O)N[C@@H](C)C(=O)NCC(=O)N[C@@H](CCC(N)=O)C(=O)N[C@H](CCCNC(=N)N)C(=O)O` [Example 6, DNP-Pro-Ala-Gly-Leu-Ala-Gly-Gln-D-Arg-OH] (Dnp-PAGLAGQ[dR]-OH), the “Rate of hydrolysis by Collagenase” value with purified collagenase [1] was 0.120 OD365/hr. Moreover, the “Rate of hydrolysis by non-specific peptidases” value in the test on non-specific peptidases was determined as 0.051 OD365/hr.

Turning to `CC[C@H](C)[C@H](NC(=O)CNC(=O)[C@H](CCC(N)=O)NC(=O)[C@@H]1CCCN1c1ccc([N+](=O)[O-])cc1[N+](=O)[O-])C(=O)N[C@@H](C)C(=O)NCC(=O)N[C@H](CCCNC(=N)N)C(=O)O` [Example 8, DNP-Pro-Gln-Gly-Ile-Ala-Gly-D-Arg-OH] (Dnp-PQGIAG[dR]-OH), in the test with purified collagenase [1], the “Rate of hydrolysis by Collagenase” value came out at 0.157 OD365/hr. Also, the “Rate of hydrolysis by non-specific peptidases” value in the test with non-specific peptidases is 0.021 OD365/hr.

Regarding `CC[C@H](C)[C@H](NC(=O)CNC(=O)[C@H](CC(C)C)NC(=O)[C@@H]1CCCN1c1ccc([N+](=O)[O-])cc1[N+](=O)[O-])C(=O)N[C@@H](C)C(=O)NCC(=O)N[C@@H](CCC(N)=O)C(=O)N[C@H](CCCNC(=N)N)C(=O)O` [Example 9, DNP-Pro-Leu-Gly-Ile-Ala-Gly-Gln-D-Arg-OH] (Dnp-PLGIAGQ[dR]-OH), in the test with purified collagenase [1], the “Rate of hydrolysis by Collagenase” value was found to be 0.276 OD365/hr. The “Rate of hydrolysis by non-specific peptidases” value in the test with non-specific peptidases is on record as 0 OD365/hr.

For `CC[C@H](C)[C@H](NC(=O)CNC(=O)[C@H](CCC(N)=O)Nc1ccc([N+](=O)[O-])cc1[N+](=O)[O-])C(=O)N[C@@H](C)C(=O)NCC(=O)N[C@@H](CCC(N)=O)C(=O)N[C@H](CCCNC(=N)N)C(=O)O` [Example 10, DNP-Gln-Gly-Ile-Ala-Gly-Gln-D-Arg-OH], the “00365 (absorbance of the organic layer at 365 nm)” value with purified collagenase [2] (incubation time 0 min) amounted to 0.027; with purified collagenase [2] (incubation time 10 min), 0.027; with purified collagenase [2] (incubation time 20 min), 0.027; in the test on purified collagenase [2] (incubation time 40 min) it was 0.030; with purified collagenase [2] (incubation time 60 min), 0.029; in the test with purified collagenase [2] (incubation time 120 min), 0.027. Further, the “increment of 00365” value in the test with purified collagenase [2] (incubation time 10 min) came out at 0; in the test on purified collagenase [2] (incubation time 20 min), 0; with purified collagenase [2] (incubation time 40 min) it was 0.002; with purified collagenase [2] (incubation time 60 min) it was 0.002; with purified collagenase [2] (incubation time 120 min) it was 0. The OD365/0.1 ml ohr in test [3] (setting [4]) stood at 0.045 OD365/0.1 ml; in test [3] (setting [5]), 0.038 OD365/0.1 ml; in test [3] (synovial fluid of case one, RA), 0.049 OD365/0.1 ml; in test [3] (synovial fluid of case six, OA), 0.050 OD365/0.1 ml; in test [3] (setting [6]), 0.050 OD365/0.1 ml; in test [3] (synovial fluid of case two, OA) it was 0.035 OD365/0.1 ml. Also, the “OD365/0.1 ml 2hr” value came out at 0.045 OD365/0.1 ml in test [3] (setting [4]); 0.040 OD365/0.1 ml in test [3] (setting [5]); 0.046 OD365/0.1 ml in test [3] (synovial fluid of case one, RA); 0.041 OD365/0.1 ml in test [3] (synovial fluid of case six, OA); 0.051 OD365/0.1 ml in test [3] (setting [6]); 0.038 OD365/0.1 ml in test [3] (synovial fluid of case two, OA). Also, the OD365/0.1 ml increment came out at 0.000 OD365/0.1 ml in test [3] (setting [4]); 0.002 OD365/0.1 ml in test [3] (setting [5]); 0 OD365/0.1 ml in test [3] (synovial fluid of case one, RA); 0 OD365/0.1 ml in test [3] (synovial fluid of case six, OA); 0.001 OD365/0.1 ml in test [3] (setting [6]); 0.003 OD365/0.1 ml in test [3] (synovial fluid of case two, OA). For the same molecule, in the test on purified collagenase [1], the “Rate of hydrolysis by Collagenase” value is 0 OD365/hr. The “Rate of hydrolysis by non-specific peptidases” value with non-specific peptidases was 0 OD365/hr.

Regarding `CC[C@H](C)[C@H](NC(=O)CNC(=O)[C@H](C)Nc1ccc([N+](=O)[O-])cc1[N+](=O)[O-])C(=O)N[C@@H](C)C(=O)NCC(=O)N[C@@H](CCC(N)=O)C(=O)N[C@H](CCCNC(=N)N)C(=O)O` [Example 11, DNP-Ala-Gly-Ile-Ala-Gly-Gln-D-Arg-OH], the “Rate of hydrolysis by Collagenase” value with purified collagenase [1] worked out at 0 OD365/hr. Further, the “Rate of hydrolysis by non-specific peptidases” value with non-specific peptidases was determined as 0.016 OD365/hr.
